Test results reported in PubChem BioAssay (NCI).
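Method: 48-hour compound exposure of cells in 96-well plates, five concentrations, linear interpolation of endpoints. TGI: concentration producing complete growth inhibition.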

Columns and labels:
Assay in all cases: growth of human tumour cells (NCI), 48 h
786-0 renal = tested on: 786-0 renal
A498 renal = tested on: A498 renal
A549 NSCLC = tested on: A549 NSCLC
ACHN renal = tested on: ACHN renal
CAKI-1 renal = tested on: CAKI-1 renal
CCRF-CEM leukemia = tested on: CCRF-CEM leukemia
COLO 205 colon = tested on: COLO 205 colon
DLD-1 colon = tested on: DLD-1 colon
DMS 114 small cell lung = tested on: DMS 114 small cell lung
DMS 273 small cell lung = tested on: DMS 273 small cell lung
EKVX NSCLC = tested on: EKVX NSCLC
HCC-2998 colon = tested on: HCC-2998 colon
HCT-116 colon = tested on: HCT-116 colon
HCT-15 colon = tested on: HCT-15 colon
HL-60(TB) leukemia = tested on: HL-60(TB) leukemia
HOP-62 NSCLC = tested on: HOP-62 NSCLC
HT29 colon = tested on: HT29 colon
IGROV1 ovarian = tested on: IGROV1 ovarian
K-562 leukemia = tested on: K-562 leukemia
KM12 colon = tested on: KM12 colon
LOX IMVI melanoma = tested on: LOX IMVI melanoma
LXFL 529 NSCLC = tested on: LXFL 529 NSCLC
M14 melanoma = tested on: M14 melanoma
M19-MEL melanoma = tested on: M19-MEL melanoma
MALME-3M melanoma = tested on: MALME-3M melanoma
MOLT-4 leukemia = tested on: MOLT-4 leukemia
NCI-H226 lung = tested on: NCI-H226 lung
NCI-H23 lung = tested on: NCI-H23 lung
NCI-H460 lung = tested on: NCI-H460 lung
NCI-H522 lung = tested on: NCI-H522 lung
OVCAR-3 ovarian = tested on: OVCAR-3 ovarian
OVCAR-4 ovarian = tested on: OVCAR-4 ovarian
OVCAR-5 ovarian = tested on: OVCAR-5 ovarian
OVCAR-8 ovarian = tested on: OVCAR-8 ovarian
RPMI-8226 leukemia = tested on: RPMI-8226 leukemia
SF-268 CNS = tested on: SF-268 CNS
SF-295 CNS = tested on: SF-295 CNS
SF-539 CNS = tested on: SF-539 CNS
SK-MEL-2 melanoma = tested on: SK-MEL-2 melanoma
SK-MEL-28 melanoma = tested on: SK-MEL-28 melanoma
SK-MEL-5 melanoma = tested on: SK-MEL-5 melanoma
SN12C renal = tested on: SN12C renal
SNB-19 CNS = tested on: SNB-19 CNS
SNB-75 CNS = tested on: SNB-75 CNS
SR leukemia = tested on: SR leukemia
SW-620 colon = tested on: SW-620 colon
TK-10 renal = tested on: TK-10 renal
UACC-257 melanoma = tested on: UACC-257 melanoma
UACC-62 melanoma = tested on: UACC-62 melanoma
UO-31 renal = tested on: UO-31 renal
HOP-18 NSCLC = tested on: HOP-18 NSCLC
HOP-92 NSCLC = tested on: HOP-92 NSCLC
KM20L2 colon = tested on: KM20L2 colon
RXF 393 renal = tested on: RXF 393 renal
SK-OV-3 ovarian = tested on: SK-OV-3 ovarian
SNB-78 CNS = tested on: SNB-78 CNS
U251 CNS = tested on: U251 CNS
XF 498 CNS = tested on: XF 498 CNS

## Cc1ccc(C(=O)N2CCCCC2)cc1N=NN(C)C
786-0 renal
  TGI: > 100 µM
A498 renal
  TGI: > 100 µM
A549 NSCLC
  TGI: > 100 µM
ACHN renal
  TGI: > 100 µM
CAKI-1 renal
  TGI: > 100 µM
CCRF-CEM leukemia
  TGI: > 100 µM
COLO 205 colon
  TGI: > 100 µM
DLD-1 colon
  TGI: > 100 µM
DMS 114 small cell lung
  TGI: > 100 µM
DMS 273 small cell lung
  TGI: > 100 µM
EKVX NSCLC
  TGI: > 100 µM
HCC-2998 colon
  TGI: > 100 µM
HCT-116 colon
  TGI: > 100 µM
HCT-15 colon
  TGI: > 100 µM
HL-60(TB) leukemia
  TGI: > 100 µM
HOP-62 NSCLC
  TGI: > 100 µM
HT29 colon
  TGI: > 100 µM
IGROV1 ovarian
  TGI: > 100 µM
K-562 leukemia
  TGI: > 100 µM
KM12 colon
  TGI: > 100 µM
LOX IMVI melanoma
  TGI: > 100 µM
LXFL 529 NSCLC
  TGI: > 100 µM
M14 melanoma
  TGI: > 100 µM
M19-MEL melanoma
  TGI: > 100 µM
MALME-3M melanoma
  TGI: > 100 µM
MOLT-4 leukemia
  TGI: > 100 µM
NCI-H226 lung
  TGI: > 100 µM
NCI-H23 lung
  TGI: > 100 µM
NCI-H460 lung
  TGI: > 100 µM
NCI-H522 lung
  TGI: > 100 µM
OVCAR-3 ovarian
  TGI: > 100 µM
OVCAR-4 ovarian
  TGI: > 100 µM
OVCAR-5 ovarian
  TGI: > 100 µM
OVCAR-8 ovarian
  TGI: > 100 µM
RPMI-8226 leukemia
  TGI: > 100 µM
SF-268 CNS
  TGI: > 100 µM
SF-295 CNS
  TGI: > 100 µM
SF-539 CNS
  TGI: > 100 µM
SK-MEL-2 melanoma
  TGI: > 100 µM
SK-MEL-28 melanoma
  TGI: > 100 µM
SK-MEL-5 melanoma
  TGI: > 100 µM
SN12C renal
  TGI: > 100 µM
SNB-19 CNS
  TGI: > 100 µM
SNB-75 CNS
  TGI: > 100 µM
SR leukemia
  TGI: > 100 µM
SW-620 colon
  TGI: > 100 µM
TK-10 renal
  TGI: > 100 µM
UACC-257 melanoma
  TGI: > 100 µM
UACC-62 melanoma
  TGI: > 100 µM
UO-31 renal
  TGI: > 100 µM

## CN(C)c1ccc(/C=c2\sc3nnc(-c4cccnc4)n3c2=O)cc1
786-0 renal
  TGI: > 100 µM
A498 renal
  TGI: > 100 µM
A549 NSCLC
  TGI: > 100 µM
ACHN renal
  TGI: > 100 µM
CAKI-1 renal
  TGI: > 100 µM
CCRF-CEM leukemia
  TGI: > 100 µM
COLO 205 colon
  TGI: > 100 µM
DLD-1 colon
  TGI: > 100 µM
DMS 114 small cell lung
  TGI: > 100 µM
DMS 273 small cell lung
  TGI: > 100 µM
EKVX NSCLC
  TGI: > 100 µM
HCC-2998 colon
  TGI: > 100 µM
HCT-116 colon
  TGI: > 100 µM
HCT-15 colon
  TGI: > 100 µM
HL-60(TB) leukemia
  TGI: > 100 µM
HOP-18 NSCLC
  TGI: > 100 µM
HOP-62 NSCLC
  TGI: > 100 µM
HOP-92 NSCLC
  TGI: > 100 µM
IGROV1 ovarian
  TGI: > 100 µM
K-562 leukemia
  TGI: > 100 µM
KM12 colon
  TGI: > 100 µM
KM20L2 colon
  TGI: > 100 µM
LOX IMVI melanoma
  TGI: > 100 µM
LXFL 529 NSCLC
  TGI: > 100 µM
M14 melanoma
  TGI: > 100 µM
M19-MEL melanoma
  TGI: > 100 µM
MALME-3M melanoma
  TGI: > 100 µM
MOLT-4 leukemia
  TGI: > 100 µM
NCI-H226 lung
  TGI: > 100 µM
NCI-H23 lung
  TGI: > 100 µM
NCI-H460 lung
  TGI: > 100 µM
NCI-H522 lung
  TGI: > 100 µM
OVCAR-3 ovarian
  TGI: > 100 µM
OVCAR-4 ovarian
  TGI: > 100 µM
OVCAR-5 ovarian
  TGI: > 100 µM
OVCAR-8 ovarian
  TGI: > 100 µM
RPMI-8226 leukemia
  TGI: > 100 µM
RXF 393 renal
  TGI: > 100 µM
SF-268 CNS
  TGI: > 100 µM
SF-295 CNS
  TGI: > 100 µM
SF-539 CNS
  TGI: > 100 µM
SK-MEL-2 melanoma
  TGI: > 100 µM
SK-MEL-28 melanoma
  TGI: > 100 µM
SK-MEL-5 melanoma
  TGI: > 100 µM
SK-OV-3 ovarian
  TGI: > 100 µM
SN12C renal
  TGI: > 100 µM
SNB-19 CNS
  TGI: > 100 µM
SNB-75 CNS
  TGI: > 100 µM
SNB-78 CNS
  TGI: > 100 µM
SW-620 colon
  TGI: > 100 µM
TK-10 renal
  TGI: > 100 µM
U251 CNS
  TGI: > 100 µM
UACC-257 melanoma
  TGI: > 100 µM
UACC-62 melanoma
  TGI: > 100 µM
UO-31 renal
  TGI: > 100 µM
XF 498 CNS
  TGI: > 100 µM

## COc1ccc2[nH]c3c4c(cc(-c5ccccc5)c3c2c1)C(=O)N(c1ccccc1)C4=O
786-0 renal
  TGI: 29.5 µM
A498 renal
  TGI: > 73.8 µM
A549 NSCLC
  TGI: > 100 µM
ACHN renal
  TGI: > 100 µM
CAKI-1 renal
  TGI: > 77.7 µM
CCRF-CEM leukemia
  TGI: 15.1 µM
COLO 205 colon
  TGI: > 100 µM
DLD-1 colon
  TGI: > 100 µM
DMS 114 small cell lung
  TGI: > 100 µM
DMS 273 small cell lung
  TGI: 36.8 µM
EKVX NSCLC
  TGI: > 100 µM
HCC-2998 colon
  TGI: > 100 µM
HCT-116 colon
  TGI: > 100 µM
HCT-15 colon
  TGI: > 100 µM
HL-60(TB) leukemia
  TGI: > 100 µM
HOP-18 NSCLC
  TGI: > 100 µM
HOP-62 NSCLC
  TGI: > 71.3 µM
HOP-92 NSCLC
  TGI: 74 µM
HT29 colon
  TGI: > 100 µM
IGROV1 ovarian
  TGI: > 100 µM
K-562 leukemia
  TGI: > 100 µM
KM12 colon
  TGI: > 100 µM
KM20L2 colon
  TGI: > 100 µM
LOX IMVI melanoma
  TGI: > 92 µM
LXFL 529 NSCLC
  TGI: 64.3 µM
M14 melanoma
  TGI: > 95.4 µM
M19-MEL melanoma
  TGI: > 100 µM
MALME-3M melanoma
  TGI: 65 µM
MOLT-4 leukemia
  TGI: > 100 µM
NCI-H226 lung
  TGI: > 100 µM
NCI-H23 lung
  TGI: 98.6 µM
NCI-H460 lung
  TGI: > 100 µM
NCI-H522 lung
  TGI: 61 µM
OVCAR-3 ovarian
  TGI: 55.2 µM
OVCAR-4 ovarian
  TGI: 3.56 µM
OVCAR-5 ovarian
  TGI: > 100 µM
OVCAR-8 ovarian
  TGI: 39.6 µM
RPMI-8226 leukemia
  TGI: > 100 µM
RXF 393 renal
  TGI: 69.7 µM
SF-268 CNS
  TGI: 97.1 µM
SF-295 CNS
  TGI: 33.7 µM
SF-539 CNS
  TGI: 16.5 µM
SK-MEL-2 melanoma
  TGI: > 100 µM
SK-MEL-28 melanoma
  TGI: > 100 µM
SK-MEL-5 melanoma
  TGI: > 100 µM
SK-OV-3 ovarian
  TGI: > 93.1 µM
SN12C renal
  TGI: > 100 µM
SNB-19 CNS
  TGI: > 81.8 µM
SNB-75 CNS
  TGI: 37.2 µM
SNB-78 CNS
  TGI: > 88.3 µM
SR leukemia
  TGI: 19.9 µM
SW-620 colon
  TGI: > 100 µM
TK-10 renal
  TGI: > 100 µM
U251 CNS
  TGI: 36.7 µM
UACC-257 melanoma
  TGI: > 100 µM
UACC-62 melanoma
  TGI: > 90.6 µM
UO-31 renal
  TGI: > 72 µM

## O=C(Nc1ccccc1)c1cccc([N+](=O)[O-])c1
786-0 renal
  TGI: > 100 µM
A498 renal
  TGI: > 100 µM
A549 NSCLC
  TGI: > 100 µM
ACHN renal
  TGI: > 100 µM
CAKI-1 renal
  TGI: > 100 µM
CCRF-CEM leukemia
  TGI: > 100 µM
COLO 205 colon
  TGI: > 100 µM
DMS 114 small cell lung
  TGI: > 100 µM
DMS 273 small cell lung
  TGI: > 100 µM
EKVX NSCLC
  TGI: > 100 µM
HCC-2998 colon
  TGI: > 100 µM
HCT-116 colon
  TGI: > 100 µM
HCT-15 colon
  TGI: > 100 µM
HOP-18 NSCLC
  TGI: > 100 µM
HOP-62 NSCLC
  TGI: > 100 µM
HOP-92 NSCLC
  TGI: > 100 µM
HT29 colon
  TGI: > 100 µM
IGROV1 ovarian
  TGI: > 100 µM
K-562 leukemia
  TGI: > 100 µM
KM20L2 colon
  TGI: > 100 µM
M19-MEL melanoma
  TGI: > 100 µM
MALME-3M melanoma
  TGI: > 100 µM
MOLT-4 leukemia
  TGI: > 100 µM
OVCAR-3 ovarian
  TGI: > 100 µM
OVCAR-8 ovarian
  TGI: > 100 µM
RPMI-8226 leukemia
  TGI: > 100 µM
SF-268 CNS
  TGI: > 100 µM
SF-539 CNS
  TGI: > 100 µM
SK-MEL-28 melanoma
  TGI: > 100 µM
SK-MEL-5 melanoma
  TGI: > 100 µM
SN12C renal
  TGI: > 100 µM
SNB-19 CNS
  TGI: > 100 µM
SNB-75 CNS
  TGI: > 100 µM
SNB-78 CNS
  TGI: > 100 µM
SW-620 colon
  TGI: > 100 µM
U251 CNS
  TGI: > 100 µM
UACC-62 melanoma
  TGI: > 100 µM
XF 498 CNS
  TGI: > 100 µM
